Experimental data reported in patent US20080009418A1, “Selective Inhibitors” (Alchemia LTD., priority 2004, published 2008).

What was measured:
Human δ-opioid (DOP) = target: T1, Human δ-opioid (DOP) (Homo sapiens, UniProt P41143); assay: Radioligand binding, human δ-opioid (DOP) membranes, FlashPlate, [3H]-Bremazocine; settings: compound at 10 μM, [3H]-Bremazocine
T1 construct: purchased Perkin Elmer Biosignal
How it was run: (§1)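 Cloned human receptor membranes were coated onto FlashPlate wells and incubated with radioligand and compound (added from a 0.5 mM DMSO daughter plate) for 1 hour at room temperature in the dark. Scintillation counting gave percent inhibition, with DMSO defining total and reference ligand defining non-specific binding.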

Human κ-Opioid (KOP) = target: T2, Human κ-Opioid (KOP) (Homo sapiens, UniProt P41145); assay: Radioligand binding, human κ-opioid (KOP) membranes, filtration, [3H]-Diprenorphine; settings: compound at 10 μM, [3H]-Diprenorphine
T2 construct: purchased Perkin Elmer Biosignal
T2 sequence (P41145 whole entry): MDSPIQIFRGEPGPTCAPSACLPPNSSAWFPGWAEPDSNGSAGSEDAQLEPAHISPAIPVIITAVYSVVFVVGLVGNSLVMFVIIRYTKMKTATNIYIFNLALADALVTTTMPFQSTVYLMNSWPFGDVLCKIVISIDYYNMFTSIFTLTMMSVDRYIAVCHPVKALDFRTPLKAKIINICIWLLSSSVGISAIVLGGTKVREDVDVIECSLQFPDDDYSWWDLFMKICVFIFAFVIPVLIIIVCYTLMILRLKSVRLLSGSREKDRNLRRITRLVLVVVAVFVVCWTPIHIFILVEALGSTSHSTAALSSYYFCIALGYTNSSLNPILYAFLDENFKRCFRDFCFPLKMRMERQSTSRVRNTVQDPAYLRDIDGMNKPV
How it was run: (§2)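 Percent inhibition of radioligand binding measured on recombinant human membranes: NK1 with [125I]-Substance P, KOP with [3H]-Diprenorphine. Incubation 1 h at room temperature, then harvest onto 0.3% PEI-soaked filters, cold Tris-HCl pH 7.4 washes and scintillation counting; non-specific binding from reference ligand wells.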

Human Melanocortin (MC3) = target: T3, Human Melanocortin (MC3) (Homo sapiens, UniProt P41968); assay: Radioligand binding, human melanocortin MC3 membranes, FlashPlate, [125I]-NDP-αMSH; settings: compound at 10 μM, [125I]-NDP-αMSH
T3 construct: purchased Perkin Elmer Biosignal
T3 sequence (P41968 whole entry): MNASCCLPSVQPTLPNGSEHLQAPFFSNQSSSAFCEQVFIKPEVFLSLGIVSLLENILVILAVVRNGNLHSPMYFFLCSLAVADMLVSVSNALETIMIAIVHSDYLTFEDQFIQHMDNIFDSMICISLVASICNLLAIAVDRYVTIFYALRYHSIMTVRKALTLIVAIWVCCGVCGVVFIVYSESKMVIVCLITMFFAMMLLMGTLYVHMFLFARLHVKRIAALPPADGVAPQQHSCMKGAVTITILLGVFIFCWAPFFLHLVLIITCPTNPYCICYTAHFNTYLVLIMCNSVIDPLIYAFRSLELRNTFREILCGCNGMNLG
How it was run: as §1

Human Melanocortin (MC4) = target: T4, Human Melanocortin (MC4) (Homo sapiens, UniProt P32245); assay: Radioligand binding, human melanocortin MC4 membranes, FlashPlate, [125I]-NDP-αMSH; settings: compound at 10 μM, [125I]-NDP-αMSH
T4 construct: purchased Perkin Elmer Biosignal
T4 sequence (P32245 whole entry): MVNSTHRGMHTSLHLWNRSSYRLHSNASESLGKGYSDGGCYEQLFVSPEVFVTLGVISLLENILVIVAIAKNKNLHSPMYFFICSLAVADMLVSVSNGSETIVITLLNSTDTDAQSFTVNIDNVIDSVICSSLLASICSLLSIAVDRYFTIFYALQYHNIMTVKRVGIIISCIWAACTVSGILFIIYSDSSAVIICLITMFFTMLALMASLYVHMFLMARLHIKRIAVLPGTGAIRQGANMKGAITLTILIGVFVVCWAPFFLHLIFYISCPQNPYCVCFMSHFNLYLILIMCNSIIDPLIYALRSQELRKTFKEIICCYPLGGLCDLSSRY
How it was run: as §1

Human melanocortin (MC5) = target: T5, Human melanocortin (MC5) (Homo sapiens, UniProt P33032); assay: Radioligand binding, human melanocortin MC5 membranes, FlashPlate, [125I]-NDP-αMSH; settings: compound at 10 μM, [125I]-NDP-αMSH
T5 construct: purchased Perkin Elmer Biosignal
T5 sequence (P33032 whole entry): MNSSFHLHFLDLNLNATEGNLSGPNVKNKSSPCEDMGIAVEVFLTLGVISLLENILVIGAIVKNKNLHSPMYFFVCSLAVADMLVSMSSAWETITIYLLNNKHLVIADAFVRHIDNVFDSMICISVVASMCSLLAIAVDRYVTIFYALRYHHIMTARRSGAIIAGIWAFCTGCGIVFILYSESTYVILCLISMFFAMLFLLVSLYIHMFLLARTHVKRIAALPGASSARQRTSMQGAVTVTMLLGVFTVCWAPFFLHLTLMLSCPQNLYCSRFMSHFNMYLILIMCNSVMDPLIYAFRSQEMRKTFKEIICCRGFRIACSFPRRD
How it was run: as §1

[1] = target: T6, Human melanin-concentrating hormone (MCH1) (Homo sapiens, UniProt Q99705); assay: Radioligand binding, human melanin-concentrating hormone MCH1 membranes, FlashPlate, [125I]-S36057; settings: compound at 10 μM; for A6 radioligand binding, percentage inhibition: [125I]-S36057
T6 construct: purchased Perkin Elmer Biosignal
T6 sequence (Q99705 whole entry): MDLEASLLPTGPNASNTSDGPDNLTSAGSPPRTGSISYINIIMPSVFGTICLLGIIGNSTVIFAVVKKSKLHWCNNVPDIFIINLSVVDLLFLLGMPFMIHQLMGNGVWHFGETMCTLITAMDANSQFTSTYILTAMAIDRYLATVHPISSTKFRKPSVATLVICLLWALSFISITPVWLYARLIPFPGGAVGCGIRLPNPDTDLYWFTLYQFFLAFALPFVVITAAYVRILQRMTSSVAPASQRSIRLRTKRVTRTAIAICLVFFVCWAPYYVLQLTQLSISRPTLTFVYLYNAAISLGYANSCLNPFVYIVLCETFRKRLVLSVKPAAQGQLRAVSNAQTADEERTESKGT
How it was run: as §1

Human μ-opioid (MOP) = target: T7, Human μ-opioid (MOP) (Homo sapiens, UniProt P35372); assay: Radioligand binding, human μ-opioid (MOP) membranes, FlashPlate, [3H]-Naloxone; settings: compound at 10 μM, [3H]-Naloxone
T7 construct: purchased Perkin Elmer Biosignal
T7 sequence (P35372 whole entry): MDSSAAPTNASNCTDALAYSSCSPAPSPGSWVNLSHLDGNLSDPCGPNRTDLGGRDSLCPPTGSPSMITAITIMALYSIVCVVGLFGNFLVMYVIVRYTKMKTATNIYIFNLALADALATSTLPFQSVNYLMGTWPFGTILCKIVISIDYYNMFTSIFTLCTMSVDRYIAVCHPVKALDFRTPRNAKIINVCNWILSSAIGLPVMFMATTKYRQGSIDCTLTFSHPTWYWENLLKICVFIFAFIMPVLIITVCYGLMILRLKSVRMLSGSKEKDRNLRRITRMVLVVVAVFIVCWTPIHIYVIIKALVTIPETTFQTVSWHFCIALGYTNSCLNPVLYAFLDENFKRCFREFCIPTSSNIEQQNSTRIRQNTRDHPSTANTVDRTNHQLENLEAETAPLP
How it was run: as §1

Human neurokinin (NK1) = target: T8, Human neurokinin (NK1) (Homo sapiens, UniProt P25103); assay: Radioligand binding, human neurokinin NK1 membranes, filtration, [125I]-Substance P; settings: compound at 10 μM, [125I]-Substance P
T8 construct: purchased Perkin Elmer Biosignal
T8 sequence (P25103 whole entry): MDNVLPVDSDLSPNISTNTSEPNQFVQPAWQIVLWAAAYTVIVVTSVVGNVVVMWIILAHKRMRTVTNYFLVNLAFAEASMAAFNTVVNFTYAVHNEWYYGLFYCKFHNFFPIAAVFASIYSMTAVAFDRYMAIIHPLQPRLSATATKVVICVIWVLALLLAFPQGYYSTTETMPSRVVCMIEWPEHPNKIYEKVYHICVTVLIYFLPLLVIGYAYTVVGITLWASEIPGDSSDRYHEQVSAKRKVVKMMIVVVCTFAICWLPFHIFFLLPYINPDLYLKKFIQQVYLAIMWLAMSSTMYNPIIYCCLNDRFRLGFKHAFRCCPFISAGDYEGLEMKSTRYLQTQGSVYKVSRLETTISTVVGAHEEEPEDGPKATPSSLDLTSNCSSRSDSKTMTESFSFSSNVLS
How it was run: as §2

[2] = target: T9, Human neuropeptide Y (NPY-Y1) (Homo sapiens, UniProt P25929); assay: Radioligand binding, human neuropeptide Y NPY-Y1 membranes, FlashPlate, [125I]-PYY; settings: compound at 10 μM, [125I]-PYY
T9 construct: purchased Perkin Elmer Biosignal
T9 sequence (P25929 1-384): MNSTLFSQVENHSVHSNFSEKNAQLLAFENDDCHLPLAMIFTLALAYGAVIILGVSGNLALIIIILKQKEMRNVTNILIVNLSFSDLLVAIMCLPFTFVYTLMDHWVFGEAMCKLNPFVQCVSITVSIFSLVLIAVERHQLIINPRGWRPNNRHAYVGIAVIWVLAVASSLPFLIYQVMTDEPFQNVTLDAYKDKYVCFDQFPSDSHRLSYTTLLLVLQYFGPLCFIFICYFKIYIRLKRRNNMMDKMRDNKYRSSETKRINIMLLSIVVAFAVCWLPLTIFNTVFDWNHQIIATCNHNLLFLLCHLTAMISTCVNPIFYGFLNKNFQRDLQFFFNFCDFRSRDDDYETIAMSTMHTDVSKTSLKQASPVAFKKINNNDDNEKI
How it was run: as §1

Human opioid (ORL1) = target: T10, Human opioid (ORL1) (Homo sapiens, UniProt P41146); assay: Radioligand binding, human opioid ORL1 membranes, FlashPlate, [125I]-Nociceptin; settings: compound at 10 μM, [125I]-Nociceptin
T10 construct: purchased Perkin Elmer Biosignal
T10 sequence (P41146 whole entry): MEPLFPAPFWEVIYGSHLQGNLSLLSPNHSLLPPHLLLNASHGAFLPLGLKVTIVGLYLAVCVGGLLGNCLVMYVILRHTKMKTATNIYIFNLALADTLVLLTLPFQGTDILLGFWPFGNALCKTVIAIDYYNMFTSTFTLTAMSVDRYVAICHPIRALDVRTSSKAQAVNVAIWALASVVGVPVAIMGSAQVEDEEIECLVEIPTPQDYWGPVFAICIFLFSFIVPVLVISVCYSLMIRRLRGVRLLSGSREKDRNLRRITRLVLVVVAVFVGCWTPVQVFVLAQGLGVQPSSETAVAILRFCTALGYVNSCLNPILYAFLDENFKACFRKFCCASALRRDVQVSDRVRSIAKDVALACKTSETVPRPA
How it was run: as §1

Mouse urotensin (mUR2) = target: T11, Mouse urotensin (mUR2) (Mus musculus, UniProt Q8VIH9); assay: Radioligand binding, mouse urotensin mUR2 membranes, FlashPlate, [125I]-Urotensin II; settings: compound at 10 μM, [125I]-Urotensin II
T11 construct: purchased Perkin Elmer Biosignal
T11 sequence (Q8VIH9 1-385): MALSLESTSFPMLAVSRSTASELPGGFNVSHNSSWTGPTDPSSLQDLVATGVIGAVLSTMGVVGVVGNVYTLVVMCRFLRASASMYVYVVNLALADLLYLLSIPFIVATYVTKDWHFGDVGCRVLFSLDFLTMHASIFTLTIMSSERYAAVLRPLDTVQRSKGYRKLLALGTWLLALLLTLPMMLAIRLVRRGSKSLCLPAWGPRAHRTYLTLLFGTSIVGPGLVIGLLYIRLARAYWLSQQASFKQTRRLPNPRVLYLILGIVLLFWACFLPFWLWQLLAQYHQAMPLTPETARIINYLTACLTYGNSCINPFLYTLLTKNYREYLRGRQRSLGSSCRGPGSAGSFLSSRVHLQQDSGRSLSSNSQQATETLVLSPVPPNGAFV
How it was run: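 Cloned mouse urotensin (mUR2) receptor membranes from Perkin Elmer Biosignal were immobilized in FlashPlate microplates using a proprietary coating. Each well got 19.5 μl buffer, then 0.5 μl of DMSO, reference ligand, or compound. Adding 5 μl of [125I]-Urotensin II, diluted to 5× final concentration in binding buffer, started binding. Plates were sealed with TopSeal-A and incubated 1 hour at room temperature in the dark. Wells were counted for 30 seconds each on a TopCount after a 60-second delay, and percentage inhibition was calculated.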

T1 sequence (P41143 whole entry): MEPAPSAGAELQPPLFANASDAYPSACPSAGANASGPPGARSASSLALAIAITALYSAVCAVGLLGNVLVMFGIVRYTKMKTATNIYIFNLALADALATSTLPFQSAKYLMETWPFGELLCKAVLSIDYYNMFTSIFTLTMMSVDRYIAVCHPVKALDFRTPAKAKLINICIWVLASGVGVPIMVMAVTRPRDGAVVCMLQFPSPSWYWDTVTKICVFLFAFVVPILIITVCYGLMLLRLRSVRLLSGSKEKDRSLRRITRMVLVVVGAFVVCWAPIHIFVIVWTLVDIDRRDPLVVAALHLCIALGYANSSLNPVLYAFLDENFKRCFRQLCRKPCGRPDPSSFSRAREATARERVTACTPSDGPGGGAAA

| Compound | A1 radioligand binding, percentage inhibition (Human δ-opioid (DOP)) | A2 radioligand binding, percentage inhibition (Human κ-Opioid (KOP)) | A3 radioligand binding, percentage inhibition (Human Melanocortin (MC3)) | A4 radioligand binding, percentage inhibition (Human Melanocortin (MC4)) | A5 radioligand binding, percentage inhibition (Human melanocortin (MC5)) | A6 radioligand binding, percentage inhibition [1] | A7 radioligand binding, percentage inhibition (Human μ-opioid (MOP)) | A8 radioligand binding, percentage inhibition (Human neurokinin (NK1)) | A9 radioligand binding, percentage inhibition [2] | A10 radioligand binding, percentage inhibition (Human opioid (ORL1)) | A11 radioligand binding, percentage inhibition (Mouse urotensin (mUR2)) | also measured |
| --- | --- | --- | --- | --- | --- | --- | --- | --- | --- | --- | --- | --- |
| CO[C@H]1[C@H](O)[C@@H](COCc2ccc(Cl)cc2)OC(OCCc2ccccc2)[C@@H]1NC(=O)CCCN (stereo partly drawn) [compound 121] | − (“−” indicates less than 50% inhibition at 10 μM) | − (“−” indicates less than 50% inhibition at 10 μM) | − (“−” indicates less than 50% inhibition at 10 μM) | − (“−” indicates less than 50% inhibition at 10 μM) | + (“+” indicates greater than 50% inhibition at 10 μM) | − (“−” indicates less than 50% inhibition at 10 μM) | − (“−” indicates less than 50% inhibition at 10 μM) | + (“+” indicates greater than 50% inhibition at 10 μM) | − (“−” indicates less than 50% inhibition at 10 μM) | − (“−” indicates less than 50% inhibition at 10 μM) | − (“−” indicates less than 50% inhibition at 10 μM) |  |
| COC[C@H]1OC(OCc2cccc(O)c2)[C@H](NC(=O)CCNC(=N)N)[C@@H](OCc2ccc(Cl)cc2)[C@@H]1O (stereo partly drawn) [compound 145] | − (“−” indicates less than 50% inhibition at 10 μM) | − (“−” indicates less than 50% inhibition at 10 μM) | − (“−” indicates less than 50% inhibition at 10 μM) | − (“−” indicates less than 50% inhibition at 10 μM) | − (“−” indicates less than 50% inhibition at 10 μM) | + (“+” indicates greater than 50% inhibition at 10 μM) | − (“−” indicates less than 50% inhibition at 10 μM) | − (“−” indicates less than 50% inhibition at 10 μM) | − (“−” indicates less than 50% inhibition at 10 μM) | − (“−” indicates less than 50% inhibition at 10 μM) | − (“−” indicates less than 50% inhibition at 10 μM) |  |
| COCC1OC(OCc2ccc3ccccc3c2)C(NC(=O)CNC(=N)N)C(OCc2ccc(Cl)cc2)C1O (stereo not drawn) [compound 236] |  |  |  |  |  |  |  |  |  |  |  | A1: inhibition of radioligand binding (Human δ-opioid (DOP); FlashPlate): − (“−” indicates less than 50% inhibition at 10 μM); A2: inhibition of radioligand binding (Human κ-Opioid (KOP); filtration): − (“−” indicates less than 50% inhibition at 10 μM); A3: inhibition of radioligand binding (Human Melanocortin (MC3); FlashPlate): + (“+” indicates greater than 50% inhibition at 10 μM); A4: inhibition of radioligand binding (Human Melanocortin (MC4); FlashPlate): + (“+” indicates greater than 50% inhibition at 10 μM); A5: inhibition of radioligand binding (Human melanocortin (MC5); FlashPlate): + (“+” indicates greater than 50% inhibition at 10 μM); A6: inhibition of radioligand binding ([1]; [125I]-S36057, FlashPlate): + (“+” indicates greater than 50% inhibition at 10 μM); A7: inhibition of radioligand binding (Human μ-opioid (MOP); FlashPlate): − (“−” indicates less than 50% inhibition at 10 μM); A8: inhibition of radioligand binding (Human neurokinin (NK1); filtration): + (“+” indicates greater than 50% inhibition at 10 μM); A9: inhibition of radioligand binding ([2]; FlashPlate): − (“−” indicates less than 50% inhibition at 10 μM); A10: inhibition of radioligand binding (Human opioid (ORL1); FlashPlate): − (“−” indicates less than 50% inhibition at 10 μM); A11: inhibition of radioligand binding (Mouse urotensin (mUR2); FlashPlate): − (“−” indicates less than 50% inhibition at 10 μM) |
